# Key:
# [1] = target: T1, human glucocorticoid receptor (hGR) (Homo sapiens, UniProt P04150); experiment: human glucocorticoid receptor binding assay (displacement of 3(H) Triamcinolone acetonide); settings: for hGR, value given as %: concentration not given
# T1 construct: made in house; host or cells: Sf21 insect cells infected with baculovirus hGR, OR IM9 lymphoblast cell line (endogenous hGR)
# T1 sequence (P04150 1-777): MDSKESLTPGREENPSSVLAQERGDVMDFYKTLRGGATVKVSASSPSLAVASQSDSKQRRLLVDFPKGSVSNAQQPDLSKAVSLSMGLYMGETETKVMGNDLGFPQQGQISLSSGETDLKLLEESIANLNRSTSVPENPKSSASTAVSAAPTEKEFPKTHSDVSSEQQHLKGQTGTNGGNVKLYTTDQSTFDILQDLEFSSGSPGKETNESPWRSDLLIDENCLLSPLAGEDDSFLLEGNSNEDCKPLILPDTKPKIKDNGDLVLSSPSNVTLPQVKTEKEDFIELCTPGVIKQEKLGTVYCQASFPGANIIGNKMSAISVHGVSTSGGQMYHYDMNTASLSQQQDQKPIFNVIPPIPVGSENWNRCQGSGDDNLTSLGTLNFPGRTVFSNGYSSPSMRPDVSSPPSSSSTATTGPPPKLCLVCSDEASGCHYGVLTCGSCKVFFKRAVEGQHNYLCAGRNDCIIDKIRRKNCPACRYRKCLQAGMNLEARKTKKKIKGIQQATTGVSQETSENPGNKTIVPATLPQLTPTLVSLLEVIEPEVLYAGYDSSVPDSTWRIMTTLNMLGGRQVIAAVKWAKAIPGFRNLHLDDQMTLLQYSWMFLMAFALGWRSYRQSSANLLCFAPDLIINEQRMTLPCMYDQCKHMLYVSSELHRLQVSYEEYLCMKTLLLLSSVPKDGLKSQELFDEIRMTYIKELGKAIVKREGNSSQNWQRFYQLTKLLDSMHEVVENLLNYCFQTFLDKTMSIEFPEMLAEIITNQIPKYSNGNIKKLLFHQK
# [2] = test system: human progesterone receptor (hPR); experiment: human progesterone receptor binding assay (displacement of 3(H) R5020 Promegestone)
# Protocol: A human progesterone receptor binding assay was performed in order to determine selectivity of the compounds, as follows. Human progesterone receptors were prepared from either insect cells (SF21) infected with baculovirus hPR A, or from a breast cancer cell line, T47D, which expresses high levels of endogenous hPR. The receptor binding reactions, with or without test compounds, were set up in 96-well microtiter plates which were previously siliconized with SIGMACOTE. The binding components, 3(H) R5020 Promegestone, a high affinity ligand for the progesterone receptors, glycerol/molybdate-containing buffer and unlabeled compounds were added to the wells using a combination of BIOMEK laboratory automation system and repeat pipettes. After overnight incubation, the samples were precipitated with polyethylene glycol and filtered through Whatman GF/F paper using a TOMTEK cell harvester. The filter mate with 96 samples were bound to a solid-phase scintillant and directly counted in the BETAPLATE counter. Only those compounds that were active in the human glucocorticoid receptor assay set forth in Example 30 were used for progesterone receptor binding to determine cross-reactivity profiles, if any. The activity of test compounds to displace 3(H) R5020 binding to hPR is expressed as percent inhibition at the two concentrations, 10^−6 and 10^−5 Molar.
# [3] = test system: oxazolone-induced ear swelling (MOCH) in albino male CD-1 mice; experiment: mouse oxazolone-induced contact hypersensitization (MOCH) ear swelling; assay type: in vivo; settings: for inhibition in vivo at 1 mg / Oxazolone Ear Swelling (MOCH) % inhibition vs. Vehicle at 1 mg: topical to mouse ear, one hour after oxazolone challenge, ear biopsy weight at 24 hours; for inhibition in vivo at 1 mg: read-out: Oxazolone Ear Swelling (MOCH) % inhibition vs. Vehicle at 1 mg
# Protocol: Several triphenylpropanamide compounds of this invention, having varying affinities for the human glucocorticoid receptor, were tested for topical antiinflammatory activity in mouse ear inflammation models. […] Compounds having receptor affinities closer to hydrocortisone were as nearly active as hydrocortisone in suppressing mouse oxazolone-induced contact hypersensitization (MOCH) and phorbol ester-induced ear edema. The in vivo studies of this example were conducted as follows.
# In determining the MOCH using the compounds of this invention, albino male CD-1 mice, 7-9 weeks old were induced on the shaved abdomen with 50 μl of 3% oxazolone in acetone/corn oil (Day 0). On Day 5, a 20 μl volume of 2% oxazolone in acetone was applied to the dorsal left ear of the mouse . Compounds (made in ethanol/propylene glycol, 70:30) were applied to the left ear in 20 μl volume, one hour after oxazolone challenge. The right ear was not treated. The mice were sacrificed by carbon dioxide inhalation 24 hours after oxazolone challenge, the left and right ears were removed and a 7 mm biopsy was removed from each ear and weighed. The difference in biopsy weights between the right and left ears was calculated. Antiinflammatory effects of compounds were evident as an inhibition of the increase in ear weight.
SMILES,IC50 [1] [nM],hPR % inh 10 μM [2],melting point [°C],inhibition in vivo at 1 mg [3] [%],"topical antiinflammatory activity in the oxazolone model (in words) ([3]; topical, mouse ear)","hGR, value given as % [1] [%]",Oxazolone Ear Swelling (MOCH) % inhibition vs. Vehicle at 1 mg [3] [%]
O=C(Cc1ccccc1)NCC(c1ccccc1)C(c1ccccc1)c1ccccc1 (stereo not drawn) [Compound 1],890,−0.2%,146 to 147,,,,
O=C(Cc1ccccc1)NCC(c1ccccc1)C(c1ccc(F)cc1)c1ccc(F)cc1 (stereo not drawn) [Compound 15],21,,87.5 to 89.7,47,moderate topical activity,,
COc1ccccc1CCC(=O)NCC(c1ccc(Cl)cc1)C(c1ccccc1)c1ccccc1 (stereo not drawn) [Compound 21],57,21%,122.2 to 123.5,,,,
O=C(Cc1cccs1)NCC(c1cccs1)C(c1ccccc1)c1ccccc1 (stereo not drawn) [Compound 46],723,,138.2 to 139.9,4,,,
"O=C(Cc1ccccc1Cl)NCC1(c2ccccc2)CC1(c1ccccc1)c1ccccc1 (stereo not drawn) [Compound 80, N-(2chlorophenyl)acetyl-1,2,2-triphenylcyclopropylmethylamine]",955,−11%,,,,,
O=C(NCC1(c2ccccc2)CC1(c1ccccc1)c1ccccc1)C(c1ccccc1)c1ccccc1 (stereo not drawn) [Compound 82],510,−20.4%,,,,,
CCCC(=O)NCC1(c2ccccc2)CC1(c1ccccc1)c1ccccc1 (stereo not drawn) [Compound 83],573,45%,,,,,
CC(C)C(=O)NCC1(c2ccccc2)CC1(c1ccccc1)c1ccccc1 (stereo not drawn) [Compound 84],612,15.3%,,,,,
CC(C)CC(=O)NCC1(c2ccccc2)CC1(c1ccccc1)c1ccccc1 (stereo not drawn) [Compound 85],,7.2s %,,,,68,16
CC(C)(C)C(=O)NCC1(c2ccccc2)CC1(c1ccccc1)c1ccccc1 (stereo not drawn) [Compound 86],665,12.6%,,,,,
CCCCC(=O)NCC1(c2ccccc2)CC1(c1ccccc1)c1ccccc1 (stereo not drawn) [Compound 87],681,19.8%,,,,,
O=C(Cc1ccsc1)NCC1(c2ccccc2)CC1(c1ccccc1)c1ccccc1 (stereo not drawn) [Compound 89],570,22%,,,,,
O=C(NCC1(c2ccccc2)CC1(c1ccccc1)c1ccccc1)Nc1ccccc1 (stereo not drawn) [Compound 92],1490,−1%,,,,,
O=C(NCC1(c2ccccc2)CC1(c1ccccc1)c1ccccc1)Nc1ccccc1F (stereo not drawn) [Compound 93],,33.9%,,,,17,26
COc1ccccc1NC(=O)NCC1(c2ccccc2)CC1(c1ccccc1)c1ccccc1 (stereo not drawn) [Compound 94],,−18.6%,,,,13,35
O=C(NCc1ccccc1)NCC1(c2ccccc2)CC1(c1ccccc1)c1ccccc1 (stereo not drawn) [Compound 95],,−14.3%,,,,4,16
O=C(NCC1(c2ccccc2)CC1(c1ccccc1)c1ccccc1)Oc1ccccc1 (stereo not drawn) [Compound 96],927,9.9%,,,,,
O=C(NCC1(c2ccccc2)CC1(c1ccccc1)c1ccccc1)Oc1ccc(Cl)cc1 (stereo not drawn) [Compound 97],157,12.5%,,,,,
